Data reported in patent US4362667A, “Optical isomers of 4-amino-N-(1-cyclohexyl-3-pyrrolidinyl)-N-methylbenzamide” (A. H. Robins Company, Inc., priority 1981, dated 1982).

System: rat
Assay: Cataleptic effects
Assay type: in vivo
Conditions: fumarate salt, expressed as free base
From the text: The procedure used for determing cataleptic effects of the fumarate salte was based on that of Tedeschi et al., Arch. Int. Pharmacodyn.

Row | Compound | cataleptic effect, Summary (IP) | cataleptic effect, Summary (PO) | cataleptic effect, Ed50 (estimated) (PO) [mg/kg]
1 | CN(C(=O)c1ccc(N)cc1)C1CCN(C2CCCCC2)C1 (racemic) [± racemate, 4-Amino-N-(1-cyclohexyl-3-pyrrolidinyl)-N-methylbenzamide] | NSE to 100 | NSE to 200 | 
2 | CN(C(=O)c1ccc(N)cc1)C1CCN(C2CCCCC2)C1 (single isomer, unassigned; (+)) [(+)-isomer, (+)-4-Amino-N-(1-cyclohexyl-3-pyrrolidinyl)-N-methylbenzamide] | NSE to 100 | NSE to 200 | 
3 | CN(C(=O)c1ccc(N)cc1)C1CCN(C2CCCCC2)C1 (single isomer, unassigned; (-)) [(-)-isomer, (-)-4-amino-N-(1-cyclohexyl-3-pyrrolidinyl)-N-methylbenzamide] |  |  | ~80
